Results from US20090048218A1, “17Beta-CYANO-18A-HOMO-19-NOR-ANDROST-4-ENE DERIVATIVE, ITS USE AND MEDICAMENTS COMPRISING THE DERIVATIVE” (priority 2007, published 2009).
pIC50: −log10 of the molar value. Like-named read-outs stand apart in the source and are kept apart here.

How the values were obtained:
[1] = target: T1, mineralcorticoid receptor (MR) (Homo sapiens, UniProt P08235); assay: MR antagonism, luciferase reporter cell line assay; format: cell-based
T1 sequence (P08235 1-984): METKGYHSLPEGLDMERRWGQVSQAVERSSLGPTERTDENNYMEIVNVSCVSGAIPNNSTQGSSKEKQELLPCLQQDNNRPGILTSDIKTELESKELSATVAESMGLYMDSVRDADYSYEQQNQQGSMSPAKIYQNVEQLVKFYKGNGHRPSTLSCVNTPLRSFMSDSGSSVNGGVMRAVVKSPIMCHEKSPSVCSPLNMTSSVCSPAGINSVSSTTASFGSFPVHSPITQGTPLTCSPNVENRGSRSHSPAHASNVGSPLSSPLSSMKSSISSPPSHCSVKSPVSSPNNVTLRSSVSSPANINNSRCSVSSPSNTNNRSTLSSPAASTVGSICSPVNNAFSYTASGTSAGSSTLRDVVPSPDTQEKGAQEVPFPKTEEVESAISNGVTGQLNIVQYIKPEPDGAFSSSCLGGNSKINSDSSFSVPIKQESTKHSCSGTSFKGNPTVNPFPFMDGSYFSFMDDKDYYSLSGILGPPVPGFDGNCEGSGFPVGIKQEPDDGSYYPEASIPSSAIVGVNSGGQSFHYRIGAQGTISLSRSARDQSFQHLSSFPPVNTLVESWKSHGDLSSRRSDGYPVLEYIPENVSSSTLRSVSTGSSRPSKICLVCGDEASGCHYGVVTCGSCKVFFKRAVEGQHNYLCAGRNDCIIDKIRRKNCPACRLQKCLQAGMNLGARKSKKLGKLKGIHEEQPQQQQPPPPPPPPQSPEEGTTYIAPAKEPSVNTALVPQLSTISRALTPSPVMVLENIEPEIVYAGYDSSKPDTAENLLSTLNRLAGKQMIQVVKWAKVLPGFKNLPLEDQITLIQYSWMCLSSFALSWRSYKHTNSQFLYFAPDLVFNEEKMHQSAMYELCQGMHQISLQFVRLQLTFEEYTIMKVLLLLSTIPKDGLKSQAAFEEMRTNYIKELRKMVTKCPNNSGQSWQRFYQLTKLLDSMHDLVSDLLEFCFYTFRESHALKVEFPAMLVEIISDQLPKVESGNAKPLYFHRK
Protocol: The derivatives according to the invention having the general chemical formula 1 have a very strong gestagenic activity. […] They should therefore have in vivo potassium-retaining, natriuretic (antimeralcorticoid) action. These properties were determined using the test described below:
For the culturing of the cells used for the assay, the culture medium used was DMEM (Dulbecco's Modified Eagle Medium: […] of glucose; PAA, #E15-009) with 10% FCS (Biochrom, S0115, batch #615B), 4 mM L-glutamine, 1% penicillin/streptomycin, 1 mg/ml of G418 and 0.5 μg/ml of puromycin.
Reporter cell lines were grown in a density of 4×10^4 cells per hollow in white, nontransparent tissue culture plates in each case having 96 hollows (PerkinElmer, #P12-106-017) and kept in 6% DCC—FCS (activated carbon-treated serum, for the removal of interfering components contained in the serum). The compounds to be investigated were added eight days later, and the cells were incubated with the compounds for 16 hours. The experiments were carried out in triplicate. At the end of the incubation, the effector-containing medium was removed and replaced by lysis buffer. After luciferase assay substrate (promega, #E1501) had been added, the plates containing the 96 hollows were then introduced into a microplate luminometer (Pherastar, BMG labtech), and the luminescence was measured. The IC50 values were evaluated using software for the calculation of dose-activity relationships.

PR = target: T2, PR (Rattus norvegicus, UniProt Q63449); assay: maintenance of pregnancy test on the rat; format: in vivo; settings: ovarectomized pregnant rats; for PR in vivo ED50 (pregnancy-maintaining dose): s.c. once daily from day 8 to day 15 or 21, with oestrone 5 μg/kg/day
T2 construct: The maintenance of pregnancy test on ovarectomized rats serves for the determination of the peripheral gestagenic activity of a compound; from tissue; host or cells: whole animal: pregnant, ovariectomized rats
T2 sequence (Q63449 1-923): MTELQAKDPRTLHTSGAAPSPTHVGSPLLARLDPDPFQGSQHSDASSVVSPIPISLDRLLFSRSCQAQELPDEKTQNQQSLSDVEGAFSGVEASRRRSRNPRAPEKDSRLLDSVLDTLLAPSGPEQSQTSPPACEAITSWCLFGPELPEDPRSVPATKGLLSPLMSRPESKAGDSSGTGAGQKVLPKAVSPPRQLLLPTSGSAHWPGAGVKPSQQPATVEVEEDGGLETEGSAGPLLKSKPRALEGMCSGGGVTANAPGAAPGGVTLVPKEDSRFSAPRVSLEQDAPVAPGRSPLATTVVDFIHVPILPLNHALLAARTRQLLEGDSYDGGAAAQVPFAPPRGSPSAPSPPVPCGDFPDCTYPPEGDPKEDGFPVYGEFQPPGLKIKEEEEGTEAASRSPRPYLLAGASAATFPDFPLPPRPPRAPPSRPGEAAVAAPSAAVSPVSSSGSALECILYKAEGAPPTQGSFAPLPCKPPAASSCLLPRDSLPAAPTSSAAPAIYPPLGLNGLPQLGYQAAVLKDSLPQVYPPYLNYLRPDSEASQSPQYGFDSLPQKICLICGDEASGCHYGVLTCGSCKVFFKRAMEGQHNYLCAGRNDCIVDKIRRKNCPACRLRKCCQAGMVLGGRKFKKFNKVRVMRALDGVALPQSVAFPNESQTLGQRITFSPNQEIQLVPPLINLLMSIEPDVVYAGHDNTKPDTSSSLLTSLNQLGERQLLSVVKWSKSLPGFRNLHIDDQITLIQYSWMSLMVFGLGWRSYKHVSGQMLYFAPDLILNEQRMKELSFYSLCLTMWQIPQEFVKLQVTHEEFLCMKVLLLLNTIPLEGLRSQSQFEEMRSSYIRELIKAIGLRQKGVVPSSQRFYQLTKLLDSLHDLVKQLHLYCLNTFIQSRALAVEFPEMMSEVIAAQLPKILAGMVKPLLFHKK
Text: Carrying out the maintenance of pregnancy test on the rat:
In pregnant rats, the removal of the corpora lutea or oophorectomy induces an abortion. By means of the exogenous administration of progestins (gestagens) in combination with a suitable dose of an oestrogen, the maintenance of pregnancy is possible. The maintenance of pregnancy test on ovarectomized rats serves for the determination of the peripheral gestagenic activity of a compound.
Rats were paired overnight during proestrus. Pairing was checked on the morning of the following day by the appraisal of a vaginal smear. The presence of the sperm was evaluated here as day 1 of a commencing pregnancy. On day 8 of the pregnancy, the animals were ovarectomized under ether anaesthesia. The treatment with test compound and exogenous oestrogen (oestrone, 5 μg/kg/day) was carried out subcutaneously once daily from day 8 to day 15 or day 21 of the pregnancy. The first administration on day 8 was carried out two hours before oophorectomy. Intact control animals were given exclusively vehicle.
At the end of the experiment (day 15 or day 21), the animals were sacrificed under a CO2 atmosphere, and live foetuses (foetuses having a beating heart) and implantation sites (early resorptions and dead foetuses including autolysis and atrophic placentas) were counted in both uterine horns. On day 22, it was moreover possible to examine foetuses for malformations. In uteri without foetuses or implantation sites, the number of nidation sites was determined by staining with 10% strength ammonium sulphide solution. The maintenance of pregnancy rate was calculated as the quotient of the number of living foetuses and the total number of nidation sites (both resorbed and dead foetuses and nidation sites). For drospirenone, this value is 3.5 mg/kg/day.

[2] = reporter cell lines, 16 hours incubation, luciferase luminescence, triplicate
[3] = reporter cell lines, 16 hours incubation, luciferase luminescence, triplicate, read-out: MR antagonism IC50

Row | pregnancy-maintaining dose (ED50) (PR; subcutaneous, with oestrone 5 μg/kg/day) | Structure (SMILES) | pIC50 [1] | MR antagonism activity [% of the maximum effect] [1, 2] | PR in vivo ED50 (pregnancy-maintaining dose) (PR) | pIC50 [1, 3]
1 |  | CC[C@]12CC[C@H]3[C@@H](CCC4=CC(=O)CC[C@@H]43)[C@@H]1[C@@H]1C[C@@H]1[C@@H]2C#N (single isomer, unassigned) [17β-Cyano-15β,16β-methylene-18a-homo-19-nor-androst-4-en-3-one] | 7.74 | 103.44 % of the maximum effect | 0.01 mg/kg/d s.c. | 
2 |  | CC[C@]12CC[C@H]3[C@@H]([C@H]4C[C@H]4C4=CC(=O)CC[C@@H]43)[C@@H]1[C@@H]1C[C@@H]1[C@@H]2C#N [17β-Cyano-6β,7β-15β,16β-bismethylene-18a-homo-19-nor-androst-4-en-3-one] |  | 97.52 % of the maximum effect | 0.1 mg/kg/d s.c. | 8.03
3 |  | CC[C@]12CC[C@H]3[C@@H]([C@H](C)CC4=CC(=O)CC[C@@H]43)[C@@H]1CC[C@@H]2C#N [17β-Cyano-7α-methyl-18a-homo-19-nor-androst-4-en-3-one] |  | 99.07 % of the maximum effect |  | 7.80
4 |  | CC[C@]12CC[C@H]3[C@@H]([C@@H]4C[C@@H]4C4=CC(=O)CC[C@@H]43)[C@@H]1[C@@H]1C[C@@H]1[C@]2(C)C#N [17β-Cyano-17α-methyl-6α,7α-methylene-15β,16β-methylene-18a-homo-19-nor-androst-4-en-3-one] |  | 89.49 % of the maximum effect | 1.1 mg/kg/d s.c. | 7.00
5 |  | CC[C@]12CC[C@H]3[C@@H](CCC4=CC(=O)CC[C@@H]43)[C@@H]1[C@@H]1C[C@@H]1[C@]2(C)C#N [17β-Cyano-17α-methyl-15β,16β-methylene-18a-homo-19-nor-androst-4-en-3-one] |  | 64.87 % of the maximum effect | 0.1 mg/kg/d s.c. | 9.32
6 |  | CC[C@]12CC[C@H]3[C@@H](CCC4=CC(=O)CC[C@@H]43)[C@@H]1CC[C@@H]2C#N [17β-Cyano-18a-homo-19-nor-androst-4-en-3-one] |  | 94.48 % of the maximum effect | 2.3 mg/kg/d s.c. | 8.04
7 | 3.5 mg/kg/day | C[C@]12CCC(=O)C=C1[C@@H]1C[C@@H]1[C@H]1[C@@H]3[C@@H]4C[C@@H]4[C@@]4(CCC(=O)O4)[C@@]3(C)CC[C@@H]12 [drospirenone, 6β, 7β-15β,16β-dimethylene-3-oxo-17-pregn-4-ene-21,17β-carbolactone, reference compound] |  |  |  | 
